This data set is described as follows: Tolerability after i.p. injection. The class given is in vivo. Particulars: i.p. injection at 100 mg/kg animal body. The text has this: Compounds of formula I are well tolerated at dosages required for use in accordance with the present invention.

As for `C[C@@H](O)[C@@H]1NC(=O)[C@H](CCCCN)NC(=O)[C@@H](Cc2c[nH]c3ccccc23)NC(=O)[C@H](Cc2ccccc2)NC(=O)[C@@H](NC(=O)[C@H](N)Cc2ccccc2)CSSC[C@@H](C(=O)N[C@H](CO)[C@@H](C)O)NC1=O` [octreotide], the “increase in GOT” value is “no increase in GOT” and the lethality result is “no increase in GOT or any lethality”.

(Values after EP0671413A1, “Somatostatin analogs for preventing NSAID-induced ulcers” (SANDOZ LTD, priority 1994, dated 1995).)
